# In US5135936A, “Isomers of 1-azabicyclo[2.2.2]oct-3-yl methyl 1,4-dihydro-2,6-dimethyl-4-(3-nitrophenyl)-3,5-pyridinediacarboxylic and their use as calcium antagonists” (Marion Merrell Dow Inc., priority 1991, dated 1992):
# Counter-ions that a name gives are not always drawn.
# Legend:
# [1] = tested on: [3H]-nitrendipine binding; conditions: rank among the enantiomers, in words; cited from earlier work
# [3H]-yohimbine binding = rank among the enantiomers, in words; cited from earlier work
# [2] = in words; cited from earlier work
# [3] = biological target: [3H]-Nitrendipine Binding in Rat Cortical Membranes; assay: Inhibition of [3H]-Nitrendipine Binding in Rat Cortical Membranes; conditions: rat cortex, room temperature, 90 min
# Method: [3H]-Nitrendioine Bindino in Rat Cortex
# Animals were decapitated and the cortical tissue was dissected, weighed and polytroned in about 20 volumes (w/v) of ice cold buffer ([…] TRIS HCl, pH 7.5). The tissue was then washed 3 times via centrifugation (20,000 rpm for 10 min at 4° C.) with subsequent resuspension in fresh buffer. The final pellet was resuspended prior to the assay at 22.5 mg/mL […]. Incubations were performed at room temperature for 90 min in each assay. These incubations were done in triplicate in a final assay volume of 2.0 mL. Non-specific binding was determined by the addition of 1 uM nifedipine for the [3H]-nitrendipine assay each to triplicate set of tubes. Reactions in each assay were terminated by filtration using a Brandel Cell Harvester followed by washing with ice cold buffer.
# For preliminary evaluations in each assay, all compounds were examined at four log concentrations (1 nM-1 uM). full displacement curves were generated on all compounds showing inhibition of specific binding of 50% or greater at a 1 uM drug concentration. Standard reference compounds were included and evaluated in each assay. Analysis of data was done using both the EBDA Scafit program and HP-11C linear regression.
# Guinea Pig Ileum = biological target: T1, Guinea Pig Ileum (Cavia porcellus, UniProt O35505); assay: Calcium Channel Antagonist Activity in Guinea Pig Isolated Ileal Smooth Muscle (inhibition of Ca++ evoked contractions); conditions: concentration producing a two-fold rightward shift in the control Ca++ curve; KCl-depolarized (80 mM) longitudinal smooth muscle
# T1 construct: The longitudinal smooth muscle is carefully separated from the underlying circular muscle layer; from tissue; host or cells: guinea pig ileum (terminal 10 cm discarded), isolated longitudinal smooth muscle
# T1 sequence (O35505 whole entry): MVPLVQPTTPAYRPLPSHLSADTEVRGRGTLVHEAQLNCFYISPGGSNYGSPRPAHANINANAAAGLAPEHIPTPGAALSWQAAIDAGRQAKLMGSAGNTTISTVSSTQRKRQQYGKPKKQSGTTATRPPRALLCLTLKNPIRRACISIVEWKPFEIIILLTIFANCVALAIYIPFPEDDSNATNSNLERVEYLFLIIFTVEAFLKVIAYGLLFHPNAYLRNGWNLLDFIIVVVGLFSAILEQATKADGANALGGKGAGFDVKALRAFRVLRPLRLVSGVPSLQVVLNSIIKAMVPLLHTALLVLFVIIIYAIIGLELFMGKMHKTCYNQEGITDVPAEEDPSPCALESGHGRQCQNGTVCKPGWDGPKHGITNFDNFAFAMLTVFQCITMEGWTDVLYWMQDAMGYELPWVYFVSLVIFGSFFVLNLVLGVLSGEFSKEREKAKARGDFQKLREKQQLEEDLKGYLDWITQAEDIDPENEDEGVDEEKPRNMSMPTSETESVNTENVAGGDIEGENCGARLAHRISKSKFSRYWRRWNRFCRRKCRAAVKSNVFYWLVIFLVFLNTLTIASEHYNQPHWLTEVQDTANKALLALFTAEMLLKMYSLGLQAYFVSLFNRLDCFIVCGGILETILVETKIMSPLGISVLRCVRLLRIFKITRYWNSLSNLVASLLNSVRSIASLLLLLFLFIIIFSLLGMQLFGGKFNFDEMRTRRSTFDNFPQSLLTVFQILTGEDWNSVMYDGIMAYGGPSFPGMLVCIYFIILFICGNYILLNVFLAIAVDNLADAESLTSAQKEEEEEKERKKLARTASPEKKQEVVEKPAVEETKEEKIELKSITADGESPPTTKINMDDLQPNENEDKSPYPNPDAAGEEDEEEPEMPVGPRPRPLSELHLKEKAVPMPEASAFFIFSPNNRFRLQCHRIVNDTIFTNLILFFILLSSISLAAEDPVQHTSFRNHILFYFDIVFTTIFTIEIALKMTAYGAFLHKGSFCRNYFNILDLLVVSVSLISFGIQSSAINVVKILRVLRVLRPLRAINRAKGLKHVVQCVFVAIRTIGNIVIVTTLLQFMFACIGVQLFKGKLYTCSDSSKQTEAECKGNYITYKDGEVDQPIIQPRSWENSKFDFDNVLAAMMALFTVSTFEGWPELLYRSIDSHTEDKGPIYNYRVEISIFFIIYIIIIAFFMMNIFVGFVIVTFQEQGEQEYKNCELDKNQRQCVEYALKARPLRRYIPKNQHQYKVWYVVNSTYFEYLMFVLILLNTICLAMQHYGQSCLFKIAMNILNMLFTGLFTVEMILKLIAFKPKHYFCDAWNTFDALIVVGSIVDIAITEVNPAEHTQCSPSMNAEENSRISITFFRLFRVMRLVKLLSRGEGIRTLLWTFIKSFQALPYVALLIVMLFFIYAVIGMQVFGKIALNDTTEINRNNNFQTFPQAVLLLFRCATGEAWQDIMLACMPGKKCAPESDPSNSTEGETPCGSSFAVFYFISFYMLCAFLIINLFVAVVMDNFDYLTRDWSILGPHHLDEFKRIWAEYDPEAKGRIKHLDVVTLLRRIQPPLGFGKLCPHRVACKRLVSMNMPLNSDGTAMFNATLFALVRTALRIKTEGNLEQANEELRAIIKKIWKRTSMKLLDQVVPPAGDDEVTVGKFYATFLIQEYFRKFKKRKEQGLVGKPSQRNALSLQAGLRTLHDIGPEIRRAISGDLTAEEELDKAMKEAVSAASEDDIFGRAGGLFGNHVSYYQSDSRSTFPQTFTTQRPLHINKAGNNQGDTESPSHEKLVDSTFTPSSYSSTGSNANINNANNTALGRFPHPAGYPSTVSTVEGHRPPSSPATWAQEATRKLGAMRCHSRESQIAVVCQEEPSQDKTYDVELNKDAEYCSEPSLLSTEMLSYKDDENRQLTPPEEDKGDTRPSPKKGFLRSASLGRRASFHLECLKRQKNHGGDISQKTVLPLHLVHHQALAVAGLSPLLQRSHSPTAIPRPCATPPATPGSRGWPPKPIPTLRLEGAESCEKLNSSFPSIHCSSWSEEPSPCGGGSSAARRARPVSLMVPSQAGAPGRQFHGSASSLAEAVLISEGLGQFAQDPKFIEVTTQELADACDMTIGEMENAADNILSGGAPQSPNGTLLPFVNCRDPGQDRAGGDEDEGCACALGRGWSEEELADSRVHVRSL
# From the text: Calcium Channel Antagonist Activity in Guinea Pig Isolated Ileal Smooth Muscle
# Male albino guinea pigs are sacrificed by stunning and exsanguination. The abdominal cavity is opened and the small intestine is removed, with about 10 cm of the terminal ileum being discarded. The tissue is placed in a dish containing Tyrode's solution of the following composition (in mM): NaCl 136.90; KCl 2.68; NaHCO3 11.90; NaH2 PO4 0.36; MgCl2 0.98; CaCl2 1.77; dextrose 5.55 and cut into three to four segments. A glass rod (6 mm diameter) is carefully inserted into the lumen of each segment and excess connective tissue or fat is removed. The longitudinal smooth muscle is carefully separated from the underlying circular muscle layer by gently stroking a moist cotton swab on a tangent to shallow, longitudinal incisions made parallel to the mesenteric attachment. Using gentle traction, and taking care to keep the segment moist at all times, the preparation is stripped from the remaining length of the ileal segment (Paton, W. D. M.; Zar, M. A.; J. Physiol. 1968, 194, 13.)
# Each preparation is suspended in a 10 mL jacketed glass tissue bath containing Tyrode's solution maintained at 37° C. and gassed with 5% CO2 in O2. The preparation is attached by silk thread to a force-displacement transducer. […] The initial resting tension is adjusted to 0.5 g and the preparation equilibrated for 55 min prior to experimentation. At the end of this period, the bathing solution is replaced with Ca^++ free Tyrode's solution. This solution is prepared by omitting CaCl2. The preparation is washed four times in Ca^++ free Tyrode's solution to remove any Ca^++ remaining in the bath, and allowed to equilibrate for a further 20 min.
# Experimental Protocol. Concentration-response curves to CaCl2 are obtained using the following procedure. Preparations are exposed to a depolarizing concentration of KCl (80 mM) for 6 min. At the end of this period CaCl2 is added to the bath cumulatively in the concentration range 0.2-8.0 mM. Successive additions of each Ca^++ concentration are carried out only when the previous response has reached a plateau. When the maximum response has been attained the bath is again washed (five times) with Ca^++ free buffer, and the preparation re-equilibrated for approximately 15 min. A second Ca^++ concentration-response curve is then obtained in the same manner. This second curve serves as control for that tissue.
# Further curves are obtained in the presence of increasing concentrations of the test drugs. Where appropriate, the test drug is added to the bath immediately following addition of KCl, and 6 minutes later the concentration-response curve to Ca^++ is obtained. Each test preparation is exposed to three different concentrations of a test drug. […]
# [4] = tested on: spontaneously hypertensive rats; conditions: rank among the enantiomers, in words; cited from earlier work
smiles,measurement,setting,value
"COC(=O)C1=C(C)NC(C)=C(C(=O)OCCN(C)C[C@@H]2COc3ccccc3O2)[C@@H]1c1cccc([N+](=O)[O-])c1 [2-[N-methyl-N-[(2,3-dihydro-1,4-benzodioxin-2-yl)methyl]amino]ethyl methyl 2,6-dimethyl-4-(3-nitrophenyl)-1,4-dihydropyridine-3,5-dicarboxylate]",inhibition of [3H]-nitrendipine binding,[1],most potent
"COC(=O)C1=C(C)NC(C)=C(C(=O)OCCN(C)C[C@H]2COc3ccccc3O2)[C@H]1c1cccc([N+](=O)[O-])c1 [2-[N-methyl-N-[(2,3-dihydro-1,4-benzodioxin-2-yl)methyl]amino]ethyl methyl 2,6-dimethyl-4-(3-nitrophenyl)-1,4-dihydropyridine-3,5-dicarboxylate]",inhibition of [3H]-yohimbine binding,[3H]-yohimbine binding,most potent
"COC(=O)C1=C(C)NC(C)=C(C(=O)OC(C)C)[C@@H]1c1cccc2nonc12 [(R)-enantiomer of PN 200-110, isopropyl methyl 4-(2,1,3-benzoxadiazol-4-yl) -1,4-dihydro-2,6-dimethyl-3,5-pyridinedicarboxylate]",blood flow to the heart and brain,[2],increased
same,cardiac output,[2],increased
same,effect on blood pressure,[2],almost no effect
same,effect on heart rate,[2],almost no effect
same,potency in the subendocardium of the left ventricle,[2],surprisingly potent
"COC(=O)C1=C(C)NC(C)=C(C(=O)O[C@H]2CN3CCC2CC3)[C@@H]1c1cccc([N+](=O)[O-])c1 [(R,R)-I, (R,R)-1-Azabicyclo[2.2.2]oct-3-yl methyl 1,4-dihydro-2,6-dimethyl-4-(3-nitrophenyl)-3,5-pyridinedicarboxylate]",Ki,[3],11 nM
same,Kb,Guinea Pig Ileum,34 nM
"COC(=O)C1=C(C)NC(C)=C(C(=O)O[C@H]2CN3CCC2CC3)[C@H]1c1cccc([N+](=O)[O-])c1 [(R,S)-I, (R,S)-1-Azabicyclo[2.2.2]oct-3-yl methyl 1,4-dihydro-2,6-dimethyl-4-(3-nitrophenyl)3,5-pyridinedicarboxylate]",Ki,[3],56 nM
same,Kb,Guinea Pig Ileum,174 nM
"COC(=O)C1=C(C)NC(C)=C(C(=O)OC(C)C)[C@H]1c1cccc2nonc12 [(S)-enantiomer of PN 200-110, isopropyl methyl 4-(2,1,3-benzoxadiazol-4-yl) -1,4-dihydro-2,6-dimethyl-3,5-pyridinedicarboxylate]",blood flow to the heart and brain,[2],increased
same,cardiac output,[2],increased
same,effect on blood pressure,[2],lowered
same,effect on heart rate,[2],lowered
"COC(=O)C1=C(C)NC(C)=C(C(=O)O[C@H]2CN3CCC2CC3)[C@H]1c1cccc([N+](=O)[O-])c1 [(S,R)-I, (S,R)-1-azabicyclo[2.2.2]oct-3-yl methyl 1,4-dihydro-2,6-dimethyl-4-(3-nitrophenyl)-3,5pyridinedicarboxylate, hydrochloride]",Kb,Guinea Pig Ileum,3160 nM
"COC(=O)C1=C(C)NC(C)=C(C(=O)O[C@@H]2CN3CCC2CC3)[C@H]1c1cccc([N+](=O)[O-])c1 [(S,S)-I, (S,S)-1-Azabicyclo[2.2.2]oct-3-yl methyl 1,4-dihydro-2,6-dimethyl-4-(3-nitrophenyl)-3,5-pyridinedicarboxylate]",Kb,Guinea Pig Ileum,1620 nM
"COC(=O)C1=C(C)NC(C)=C(C(=O)O[C@H]2CCCN(Cc3ccccc3)C2)[C@H]1c1cccc([N+](=O)[O-])c1 [(S,S)-enantiomer of 1-benzyl-3-piperidinyl ester]",Ca++ channel blocking activity as determined by lowering of blood pressure in spontaneously hypertensive rats,[4],greatest
"COC(=O)C1=C(C)NC(C)=C(C(=O)O[C@H]2CCN(Cc3ccccc3)C2)[C@H]1c1cccc([N+](=O)[O-])c1 [(S,S)-enantiomer of 1-benzyl-3-pyrrolidinyl ester]",Ca++ channel blocking activity as determined by inhibition of [3H]-nitrendipine binding,[1],greatest
